Holding throughout (type): functional, organism-based
The subject of one test is Saccharomyces cerevisiae. The test is described as follows: Antimicrobial activity against Saccharomyces cerevisiae DMS 1333 at 5 and 10 ug after 24 hrs by agar diffusion method. (In agar diffusion tests the substance spreads into inoculated agar from a disc or well.)
For a further test, the system named is Escherichia coli. Briefly: Antimicrobial activity against Escherichia coli DMS 10290 at 5 and 10 ug after 24 hrs by agar diffusion method.
A further test relates to Bacillus subtilis. The test is described as follows: Antimicrobial activity against Bacillus subtilis DMS 2109 at 5 and 10 ug after 24 hrs by agar diffusion method.

Here are results for 3 compounds from ChEMBL document CHEMBL1158887, “Novel chromone derivatives from the fungus Aspergillus versicolor isolated from the marine sponge Xestospongia exigua” (J Nat Prod, 2003).

Calls of active or inactive are those of the source. The rule behind the calls is not given here.

For the compound `COC1(C)Cc2ccc3c(=O)c(C)c(C)oc3c2CO1` (stereo not drawn), the outcome with Saccharomyces cerevisiae, in the test on Escherichia coli and in the test on Bacillus subtilis was inactive.

On to `Cc1cc2ccc3c(=O)c(C)c(C)oc3c2cn1`, for which the outcome in the test on Saccharomyces cerevisiae and with Escherichia coli was inactive.

As for `COC1OC(C)=Cc2ccc3c(=O)c(C)c(C)oc3c21` (stereo not drawn), the result in the test on Saccharomyces cerevisiae, in the test on Escherichia coli and with Bacillus subtilis was inactive.
